Experimental data published in ChEMBL document CHEMBL3612057, “Discovery of indolizines containing triazine moiety as new leads for the development of antitumoral agents targeting mitotic events” (2015).
Active and inactive are the calls of the source. The rule behind the calls is not given here.

Columns and labels:
[1] = tested on: UACC-257; experiment: Cytotoxicity against human UACC257 cells assessed as growth inhibition at 10 uM after 24 hrs by SRB assay; format: functional
[2] = tested on: SK-MEL-5; experiment: Cytotoxicity against human SK-MEL-5 cells assessed as growth inhibition at 10 uM after 24 hrs by SRB assay; format: functional
[3] = tested on: HOP-92; experiment: Cytotoxicity against human HOP92 cells assessed as growth inhibition at 10 uM after 24 hrs by SRB assay; format: functional
[4] = tested on: ACHN; experiment: Cytotoxicity against human ACHN cells assessed as growth inhibition at 10 uM after 24 hrs by SRB assay; format: functional; conditions: read-out: GI
[5] = tested on: Malme-3M; experiment: Cytotoxicity against human MALME-3M cells assessed as growth inhibition at 10 uM after 24 hrs by SRB assay; format: functional; conditions: for inhibition of growth at 10 µM: read-out: GI
[6] = tested on: SF-539; experiment: Cytotoxicity against human SF539 cells assessed as growth inhibition at 10 uM after 24 hrs by SRB assay; format: functional; conditions: for inhibition of growth at 10 µM: SF-539, 24 h, read-out: GI
[7] = tested on: HL-60(TB); experiment: Cytotoxicity against human HL-60(TB) cells assessed as growth inhibition at 10 uM after 24 hrs by SRB assay; format: functional
[8] = tested on: NCI-H226; experiment: Cytotoxicity against human NCI-H226 cells assessed as growth inhibition at 10 uM after 24 hrs by SRB assay; format: functional; conditions: for inhibition of growth at 10 µM: NCI-H226, 24 h, read-out: GI
[9] = tested on: CAKI-1; experiment: Cytotoxicity against human CAKI-1 cells assessed as growth inhibition at 10 uM after 24 hrs by SRB assay; format: functional; conditions: for inhibition of growth at 10 µM: CAKI-1, 24 h, read-out: GI
[10] = tested on: SK-OV-3; experiment: Cytotoxicity against human SKOV3 cells assessed as growth inhibition at 10 uM after 24 hrs by SRB assay; format: functional; conditions: for inhibition of growth at 10 µM: SK-OV-3, 24 h, read-out: GI
[11] = tested on: MCF7; experiment: Cytotoxicity against human MCF7 cells assessed as growth inhibition at 10 uM after 24 hrs by SRB assay; format: functional; conditions: MCF7, 24 h, read-out: GI
[12] = tested on: A549; experiment: Cytotoxicity against human A549 cells assessed as growth inhibition at 10 uM after 24 hrs by SRB assay; format: functional; conditions: for inhibition of growth at 10 µM: A549, 24 h, read-out: GI
[13] = tested on: T47D; experiment: Cytotoxicity against human T47D cells assessed as growth inhibition at 10 uM after 24 hrs by SRB assay; format: functional; conditions: read-out: GI
[14] = Cytotoxicity against human Hs578T cells assessed as growth inhibition at 10 uM after 24 hrs by SRB assay; format: functional; conditions: Hs-578T, read-out: GI
[15] = tested on: OVCAR-4; experiment: Cytotoxicity against human OVCAR4 cells assessed as growth inhibition at 10 uM after 24 hrs by SRB assay; format: functional; conditions: for inhibition of growth at 10 µM: OVCAR-4, 24 h, read-out: GI
[16] = tested on: RPMI-8226; experiment: Cytotoxicity against human RPMI8226 cells assessed as growth inhibition at 10 uM after 24 hrs by SRB assay; format: functional
[17] = tested on: HOP-62; experiment: Cytotoxicity against human HOP62 cells assessed as growth inhibition at 10 uM after 24 hrs by SRB assay; format: functional; conditions: for inhibition of growth at 10 µM: HOP-62, 24 h, read-out: GI
[18] = tested on: SF-295; experiment: Cytotoxicity against human SF295 cells assessed as growth inhibition at 10 uM after 24 hrs by SRB assay; format: functional; conditions: SF-295, 24 h, read-out: GI
[19] = tested on: SR; experiment: Cytotoxicity against human SR cells assessed as growth inhibition at 10 uM after 24 hrs by SRB assay; format: functional; conditions: for inhibition of growth at 10 µM: read-out: GI
[20] = tested on: PC-3; experiment: Cytotoxicity against human PC3 cells assessed as growth inhibition at 10 uM after 24 hrs by SRB assay; format: functional; conditions: for inhibition of growth at 10 µM: PC-3, 24 h, read-out: GI
[21] = tested on: 786-0; experiment: Cytotoxicity against human 786-0 cells assessed as growth inhibition at 10 uM after 24 hrs by SRB assay; format: functional; conditions: 786-0, 24 h, read-out: GI
[22] = tested on: RXF 393; experiment: Cytotoxicity against human RXF393 cells assessed as growth inhibition at 10 uM after 24 hrs by SRB assay; format: functional; conditions: RXF 393, 24 h, read-out: GI
[23] = tested on: UACC-62; experiment: Cytotoxicity against human UACC62 cells assessed as growth inhibition at 10 uM after 24 hrs by SRB assay; format: functional; conditions: for inhibition of growth at 10 µM: UACC-62, 24 h, read-out: GI
[24] = tested on: MDA-MB-231; experiment: Cytotoxicity against human MDA-MB-231 cells assessed as growth inhibition at 10 uM after 24 hrs by SRB assay; format: functional; conditions: MDA-MB-231, 24 h, read-out: GI
[25] = tested on: MDA-MB-435; experiment: Cytotoxicity against human MDA-MB-435 cells assessed as growth inhibition at 10 uM after 24 hrs by SRB assay; format: functional
[26] = tested on: OVCAR-3; experiment: Cytotoxicity against human OVCAR3 cells assessed as growth inhibition at 10 uM after 24 hrs by SRB assay; format: functional; conditions: for inhibition of growth at 10 µM: OVCAR-3, 24 h, read-out: GI
[27] = tested on: TK-10; experiment: Cytotoxicity against human TK10 cells assessed as growth inhibition at 10 uM after 24 hrs by SRB assay; format: functional; conditions: for inhibition of growth at 10 µM: TK-10, 24 h, read-out: GI
[28] = tested on: HCT-116; experiment: Cytotoxicity against human HCT116 cells assessed as growth inhibition at 10 uM after 24 hrs by SRB assay; format: functional; conditions: for inhibition of growth at 10 µM: HCT-116, 24 h, read-out: GI
[29] = tested on: CCRF-CEM; experiment: Cytotoxicity against human CCRF-CEM cells assessed as growth inhibition at 10 uM after 24 hrs by SRB assay; format: functional
[30] = tested on: OVCAR-8; experiment: Cytotoxicity against human OVCAR8 cells assessed as growth inhibition at 10 uM after 24 hrs by SRB assay; format: functional; conditions: OVCAR-8, 24 h, read-out: GI
[31] = species on record: Ovis aries; experiment: Inhibition of sheep tubulin polymerization at 100 uM by fluorescence assay
[32] = tested on: NCI-H460; experiment: Cytotoxicity against human NCI-H460 cells assessed as growth inhibition at 10 uM after 24 hrs by SRB assay; format: functional; conditions: for inhibition of growth at 10 µM: NCI-H460, 24 h, read-out: GI
[33] = tested on: SNB-75; experiment: Cytotoxicity against human SNB75 cells assessed as growth inhibition at 10 uM after 24 hrs by SRB assay; format: functional; conditions: SNB-75, 24 h, read-out: GI
[34] = tested on: U-251; experiment: Cytotoxicity against human U251 cells assessed as growth inhibition at 10 uM after 24 hrs by SRB assay; format: functional; conditions: for inhibition of growth at 10 µM: U-251, 24 h, read-out: GI
[35] = tested on: NCI/ADR-RES; experiment: Cytotoxicity against human NCI/ADR-RES cells assessed as growth inhibition at 10 uM after 24 hrs by SRB assay; format: functional; conditions: for inhibition of growth at 10 µM: read-out: GI
[36] = tested on: NCI-H522; experiment: Cytotoxicity against human NCI-H522 cells assessed as growth inhibition at 10 uM after 24 hrs by SRB assay; format: functional; conditions: for inhibition of growth at 10 µM: NCI-H522, 24 h, read-out: GI
[37] = tested on: K562; experiment: Cytotoxicity against human K562 cells assessed as growth inhibition at 10 uM after 24 hrs by SRB assay; format: functional
[38] = tested on: SK-MEL-28; experiment: Cytotoxicity against human SK-MEL-28 cells assessed as growth inhibition at 10 uM after 24 hrs by SRB assay; format: functional; conditions: for inhibition of growth at 10 µM: SK-MEL-28, 24 h, read-out: GI

Compound | growth inhibition (GI) [2] | growth inhibition (GI) [3] | inhibition of growth at 10 µM [4] [%] | inhibition of growth at 10 µM [5] [%] | growth inhibition (GI) [7] | inhibition of growth at 10 µM [11] [%] | inhibition of growth at 10 µM [12] [%] | inhibition of growth at 10 µM [13] [%] | inhibition of growth at 10 µM [14] [%] | growth inhibition (GI) [16] | inhibition of growth at 10 µM [17] [%] | inhibition of growth at 10 µM [18] [%] | inhibition of growth at 10 µM [21] [%] | inhibition of growth at 10 µM [22] [%] | inhibition of growth at 10 µM [24] [%] | growth inhibition (GI) [25] | inhibition of growth at 10 µM [30] [%] | inhibition [31] | inhibition of growth at 10 µM [33] [%] | growth inhibition (GI) [37] | other results
COc1nc(OC)nc(-c2cc(C(=O)c3ccc(Br)cc3)n3c2ccc2ccccc23)n1 | inactive | inactive | 22 | 58 | inactive | 44 | 49 | 31 | 56 | inactive | 79 | 59 | 45 | 61 | 80 | inactive | 50 | inactive | 69 | inactive | inhibition of growth at 10 µM ([1]; UACC-257, 24 h, read-out: GI): 30%; growth inhibition (GI) [6]: inactive; inhibition of growth at 10 µM [8]: 35%; inhibition of growth at 10 µM [9]: 33%; growth inhibition (GI) [10]: inactive; inhibition of growth at 10 µM [15]: 30%; growth inhibition (GI) [19]: inactive; inhibition of growth at 10 µM [20]: 37%; growth inhibition (GI) [23]: inactive; inhibition of growth at 10 µM [26]: 31%; growth inhibition (GI) [27]: inactive; growth inhibition (GI) [28]: inactive; growth inhibition (GI) [29]: inactive; inhibition of growth at 10 µM [32]: 68%; growth inhibition (GI) [34]: inactive; inhibition of growth at 10 µM [35]: 43%; growth inhibition (GI) [36]: inactive; inhibition of growth at 10 µM [38]: 43%
COc1nc(OC)nc(-c2cc(C(=O)c3ccc(Br)cc3)n3c(C)cccc23)n1 | inactive | inactive | 30 | 18 | inactive | 24 | – | 19 | 22 | inactive | – | 22 | 14 | 36 | 27 | inactive | 29 | inactive | 75 | inactive | growth inhibition (GI) [1]: inactive; growth inhibition (GI) [6]: inactive; growth inhibition (GI) [8]: inactive; growth inhibition (GI) [9]: inactive; inhibition of growth at 10 µM [10]: 20%; growth inhibition (GI) [12]: inactive; inhibition of growth at 10 µM [15]: 18%; growth inhibition (GI) [17]: inactive; growth inhibition (GI) [19]: inactive; growth inhibition (GI) [20]: inactive; growth inhibition (GI) [23]: inactive; inhibition of growth at 10 µM [26]: 15%; growth inhibition (GI) [27]: inactive; growth inhibition (GI) [28]: inactive; growth inhibition (GI) [29]: inactive; growth inhibition (GI) [32]: inactive; growth inhibition (GI) [34]: inactive; inhibition of growth at 10 µM [35]: 14%; growth inhibition (GI) [36]: inactive; inhibition of growth at 10 µM [38]: 14%
COc1ccc(C(=O)c2cc(-c3nc(OC)nc(OC)n3)c3ccccn23)cc1 | inactive | inactive | 54 | – | inactive | 13 | 21 | 17 | 25 | inactive | 97 | 47 | 27 | 59 | 50 | inactive | 16 | inactive | -17 | inactive | growth inhibition (GI) [1]: inactive; growth inhibition (GI) [5]: inactive; inhibition of growth at 10 µM [6]: 32%; inhibition of growth at 10 µM [8]: 12%; inhibition of growth at 10 µM [9]: 26%; inhibition of growth at 10 µM [10]: 54%; growth inhibition (GI) [15]: inactive; inhibition of growth at 10 µM [19]: 19%; inhibition of growth at 10 µM [20]: 18%; inhibition of growth at 10 µM [23]: 11%; growth inhibition (GI) [26]: inactive; inhibition of growth at 10 µM [27]: 18%; inhibition of growth at 10 µM [28]: 36%; growth inhibition (GI) [29]: inactive; growth inhibition (GI) [32]: inactive; inhibition of growth at 10 µM [34]: 56%; inhibition of growth at 10 µM [35]: 19%; inhibition of growth at 10 µM [36]: 60%; growth inhibition (GI) [38]: inactive
COc1nc(OC)nc(-c2cc(C(=O)c3ccc(Cl)cc3)n3ccccc23)n1 | inactive | inactive | 56 | 30 | inactive | 19 | 21 | 19 | 46 | – | 77 | 33 | 31 | 37 | 43 | inactive | 24 | inactive | -3 | inactive | growth inhibition (GI) [1]: inactive; inhibition of growth at 10 µM [6]: 39%; growth inhibition (GI) [8]: inactive; growth inhibition (GI) [9]: inactive; inhibition of growth at 10 µM [10]: 55%; growth inhibition (GI) [15]: inactive; inhibition of growth at 10 µM ([16]; RPMI-8226, 24 h, read-out: GI): 13%; inhibition of growth at 10 µM [19]: 26%; inhibition of growth at 10 µM [20]: 19%; inhibition of growth at 10 µM [23]: 14%; growth inhibition (GI) [26]: inactive; inhibition of growth at 10 µM [27]: 12%; inhibition of growth at 10 µM [28]: 26%; inhibition of growth at 10 µM ([29]; read-out: GI): 11%; inhibition of growth at 10 µM [32]: 20%; inhibition of growth at 10 µM [34]: 44%; growth inhibition (GI) [35]: inactive; inhibition of growth at 10 µM [36]: 47%; inhibition of growth at 10 µM [38]: 12%
